How the values were obtained:
Test in all cases: Bliss excess, mean over the matrix (fraction); higher = more synergy
[1] = tested on: NCI-H322M (Lung Adenocarcinoma)
Procedure, shortened: (§1)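 Cell lines in DMEM/F12 or RPMI with 10% FBS were plated in 1536-well plates, held 24 hours at 37°C, 5% CO2, then given two-drug dose matrices for 72 hours (DMSO typically 0.2%). Viability was read by CellTiter-Glo 2.0 luminescence and scaled as inhibition from 0 (vehicle wells) to 1 (blank wells). Combination Emax is the second-highest inhibition in the matrix; Bliss excess is observed combination effect minus expected EA + EB − EA·EB, EA and EB being single-agent effects.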

[2] = tested on: A704 (Kidney Carcinoma)
Procedure, shortened: as §1

[3] = tested on: SCC-9 (Oral Cavity Carcinoma)
Procedure, shortened: as §1

[4] = tested on: U-87-MG (Glioblastoma)
Procedure, shortened: as §1

[5] = tested on: BV-173 (Chronic Myelogenous Leukemia)
Procedure, shortened: as §1

[6] = tested on: KINGS-1 (Low Grade Glioma)
Procedure, shortened: as §1

[7] = tested on: RPMI-7951 (Melanoma)
Procedure, shortened: as §1

[8] = tested on: SNU-C1 (Colorectal Carcinoma)
Procedure, shortened: as §1

[9] = tested on: IMR-5 (Neuroblastoma)
Procedure, shortened: as §1

[10] = tested on: KU-19-19 (Bladder Carcinoma)
Procedure, shortened: as §1

[11] = tested on: MFE-319 (Endometrial Carcinoma)
Procedure, shortened: as §1

[12] = tested on: VMRC-LCD (Lung Adenocarcinoma)
Procedure, shortened: as §1

[13] = tested on: TGBC11TKB (Gastric Carcinoma)
Procedure, shortened: as §1

[14] = tested on: GI-1 (Glioblastoma)
Procedure, shortened: as §1

[15] = tested on: KYSE-150 (Esophageal Squamous Cell Carcinoma)
Procedure, shortened: as §1

[16] = tested on: NCI-H1573 (Lung Adenocarcinoma)
Procedure, shortened: as §1

[17] = tested on: NCI-N87 (Gastric Carcinoma)
Procedure, shortened: as §1

[18] = tested on: NH-12 (Neuroblastoma)
Procedure, shortened: as §1

[19] = tested on: NCI-H2405 (Lung Adenocarcinoma)
Procedure, shortened: as §1

[20] = tested on: HC-1 (Other Blood Carcinomas)
Procedure, shortened: as §1

Row | Compound | Bliss excess [1] | Bliss excess [2] | Bliss excess [3] | Bliss excess [4] | Bliss excess [5] | Bliss excess [6] | Bliss excess [7] | Bliss excess [8] | Bliss excess [9] | Bliss excess [10] | Bliss excess [11] | Bliss excess [12] | Bliss excess [13] | Bliss excess [14] | Bliss excess [15] | Bliss excess [16] | Bliss excess [17] | Bliss excess [18] | Bliss excess [19] | Bliss excess [20]
1 | C=CCn1c(=O)c2cnc(Nc3ccc(N4CCN(C)CC4)cc3)nc2n1-c1cccc(C(C)(C)O)n1 [AZD1775] + C1CN(CCC1(C(=O)N[C@@H](CCO)C2=CC=C(C=C2)Cl)N)C3=NC=NC4=C3C=CN4 [Capivasertib] (first compound max 3 µM, partner max 3 µM) | 0.0152 | -0.0259 | 0.0038 | 0.0503 | 0.0291 | -0.0687 | -0.0274 | -0.0869 | -0.0214 | -0.0174 | -0.0524 | -0.0226 | -0.0422 | 0.0543 | 0.0064 | -0.0318 | -0.0067 | -0.0728 | -0.0891 | 0.0514
2 | COc1nnc2ccc(N3CCC(c4ccc(OCCN5CCN(C)C(=O)[C@H]5C)cc4)CC3)nn12 [AZD5153] + CCN(CCO)CCCOc1ccc2c(Nc3cc(CC(=O)Nc4cccc(F)c4)[nH]n3)ncnc2c1 [AZD2811] (first compound max 1 µM, 7x7, partner max 1 µM) | -0.0612 | 0.0278 | -0.0476 | 0.0005 | -0.0561 | -0.0374 | -0.0243 | -0.0694 | -0.0151 | -0.0741 | -0.085 | 0.0435 | -0.0962 | 0.0977 | -0.0134 | -0.0621 | -0.0589 | -0.121 | -0.0102 | -0.0099
3 | CS(=O)(=O)CCNCc1ccc(-c2ccc3ncnc(Nc4ccc(OCc5cccc(F)c5)c(Cl)c4)c3c2)o1 [Lapatinib] + C[C@@H](Oc1cc(-c2cnn(C3CCNCC3)c2)cnc1N)c1c(Cl)ccc(F)c1Cl [Crizotinib] (first compound max 10 µM, 7x7, partner max 10 µM) | 0.0188 | -0.122 | 0.0015 | -0.0302 | -0.037 | 0.0032 | -0.0655 | -0.0359 | -0.0113 | -0.034 | -0.0205 | -0.0246 | -0.027 | -0.0444 | -0.0355 | 0.121 | -0.0456 | -0.0827 | -0.0396 | -0.0124
4 | CC1(C)CCC(CN2CCN(c3ccc(C(=O)NS(=O)(=O)c4ccc(NCC5CCOCC5)c([N+](=O)[O-])c4)c(Oc4cnc5[nH]ccc5c4)c3)CC2)=C(c2ccc(Cl)cc2)C1 [Venetoclax] + C=CCn1c(=O)c2cnc(Nc3ccc(N4CCN(C)CC4)cc3)nc2n1-c1cccc(C(C)(C)O)n1 [AZD1775] (first compound max 1 µM, partner max 1 µM) | -0.0173 | -0.0283 | -0.0451 | -0.0456 | -0.0206 | 0.0375 | -0.0559 | -0.0136 | 0.0237 | -0.023 | -0.0129 | -0.0174 | -0.0171 | -0.0127 | -0.0452 | -0.0513 | 0.0552 | 0.0148 | -0.0756 | 0.0665
5 | CN(CCO)CC[C@H](CSc1ccccc1)Nc1ccc(S(=O)(=O)NC(=O)c2ccc(N3CCC([C@@H](O)c4ccccc4-c4ccc(Cl)cc4)CC3)cc2)cc1S(=O)(=O)C(F)(F)F [AZD4320] + C1CN(CCC1(C(=O)N[C@@H](CCO)C2=CC=C(C=C2)Cl)N)C3=NC=NC4=C3C=CN4 [Capivasertib] (first compound max 1 µM, 7x7, partner max 3 µM) | -0.0402 | -0.1 | -0.0761 | -0.045 | -0.0135 | -0.103 | 0.0055 | -0.0886 | 0.154 | -0.0394 | -0.0081 | -0.0521 | -0.0398 | 0.0172 | -0.0579 | 0.0699 | -0.103 | -0.0589 | -0.0513 | -0.0058
6 | NC1(C(=O)N[C@@H](CCO)c2ccc(Cl)cc2)CCN(c2ncnc3[nH]ccc23)CC1 [Capivasertib] + COc1nnc2ccc(N3CCC(c4ccc(OCCN5CCN(C)C(=O)[C@H]5C)cc4)CC3)nn12 [AZD5153] (first compound max 10 µM, 7x7, partner max 1 µM) | -0.0144 | 0.0204 | 0.0627 | 0.0526 | -0.0607 | -0.0017 | 0.0498 | -0.0147 | 0.0285 | 0.0272 | 0.0499 | 0.0154 | -0.0144 | 0.0578 | 0.0618 | -0.0011 | -0.0314 | 0.0177 | 0.0138 | 0.0365
7 | Cc1c2c(nn1C)CSCc1cc(n(C)n1)CSc1cc(c3ccccc3c1)OCCCc1c(C(=O)O)n(C)c3c-2c(Cl)ccc13 [AZD5991] + C1CN(CCC1(C(=O)N[C@@H](CCO)C2=CC=C(C=C2)Cl)N)C3=NC=NC4=C3C=CN4 [Capivasertib] (first compound max 1 µM, 7x7, partner max 3 µM) | 0.0198 | -0.065 | -0.0113 | 0.0264 | -0.0621 | -0.0468 | 0.0035 | -0.0004 | 0.0045 | -0.0321 | 0.111 | -0.0416 | 0.0116 | 0.045 | 0.039 | 0.0057 | -0.0516 | 0.0395 | -0.0402 | -0.0475
8 | CC1(C)CCC(CN2CCN(c3ccc(C(=O)NS(=O)(=O)c4ccc(NCC5CCOCC5)c([N+](=O)[O-])c4)c(Oc4cnc5[nH]ccc5c4)c3)CC2)=C(c2ccc(Cl)cc2)C1 [Venetoclax] + CCN(CCO)CCCOc1ccc2c(Nc3cc(CC(=O)Nc4cccc(F)c4)[nH]n3)ncnc2c1 [AZD2811] (first compound max 1 µM, 7x7, partner max 1 µM) | -0.0153 | -0.0365 | -0.0214 | -0.0009 | -0.0739 | -0.0652 | 0.0107 | -0.0321 | -0.0014 | -0.059 | 0.0015 | -0.0227 | 0.0287 | 0.0405 | 0.0115 | -0.0246 | -0.004 | 0.0685 | -0.0345 | 0.177
9 | NC1(C(=O)N[C@@H](CCO)c2ccc(Cl)cc2)CCN(c2ncnc3[nH]ccc23)CC1 [Capivasertib] + CC(C)n1c(=O)n(C)c2cnc3cc(F)c(-c4ccc(OCCCN5CCCCC5)nc4)cc3c21 [AZD1390] (first compound max 10 µM, 7x7, partner max 0.3 µM) | -0.0166 | -0.0703 | -0.027 | -0.0703 | -0.0639 | -0.0398 | -0.0748 | -0.068 | -0.0487 | -0.0939 | -0.0921 | -0.0297 | -0.0598 | -0.0226 | 0.0164 | -0.111 | -0.0223 | -0.134 | -0.0513 | -0.0706
10 | NC1(C(=O)N[C@@H](CCO)c2ccc(Cl)cc2)CCN(c2ncnc3[nH]ccc23)CC1 [Capivasertib] + C[C@@H]1COCCN1C2=NC(=NC(=C2)C3(CC3)[S@](=N)(=O)C)C4=C5C=CNC5=NC=C4 [AZD6738] (first compound max 10 µM, 7x7, partner max 10 µM) | -0.0797 | -0.0571 | -0.0111 | 0.0169 | -0.0271 | -0.0197 | -0.0632 | -0.0534 | 0.019 | -0.0748 | -0.122 | -0.0185 | -0.09 | -0.0606 | -0.0545 | -0.0522 | -0.0567 | -0.0643 | -0.0513 | -0.0166
11 | Cc1nc(Nc2ncc(C(=O)Nc3c(C)cccc3Cl)s2)cc(N2CCN(CCO)CC2)n1 [Dasatinib] + CC(=O)Nc1cccc(-n2c(=O)n(C3CC3)c(=O)c3c(Nc4ccc(I)cc4F)n(C)c(=O)c(C)c32)c1 [Trametinib] (first compound max 2 µM, 7x7, partner max 1 µM) | 0.0004 | 0.0541 | 0.0784 | -0.0575 | -0.179 | -0.0416 | -0.0745 | -0.0616 | -0.0059 | 0.0906 | -0.108 | -0.0596 | -0.103 | 0.0396 | -0.035 | 0.0311 | -0.0339 | -0.0102 | 0.0721 | -0.0813
12 | CN(CCO)CC[C@H](CSc1ccccc1)Nc1ccc(S(=O)(=O)NC(=O)c2ccc(N3CCC([C@@H](O)c4ccccc4-c4ccc(Cl)cc4)CC3)cc2)cc1S(=O)(=O)C(F)(F)F [AZD4320] + Cc1cc2ncnn2cc1Nc1ncc2c(n1)n(C1CCOCC1)c(=O)n2C [AZD7648] (first compound max 1 µM, 7x7, partner max 10 µM) | -0.0426 | -0.0394 | -0.0121 | -0.0503 | -0.0643 | -0.0152 | -0.0109 | -0.0376 | 0.0335 | -0.0359 | -0.0557 | -0.0595 | 0.0075 | 0.0161 | -0.0396 | -0.0358 | -0.0695 | -0.0248 | -0.0351 | 0.0352

From the supplement of paper PMC11061612
